The values that follow come from EP0263209A2, “Anthelmintic quinolinyl acylhydrazones” (THE UPJOHN COMPANY, priority 1986, dated 1988).

Read-outs that look alike come from different tables or passages of the source.

Holding throughout (format): in vivo
One assay deals with H. contortus. The experiment in a line: Sheep experimentally infected with Haemonchus contortus, percentage clearance (Procedure No. 1). Conditions: single sheep per route. As to the method:
In individual experiments all sheep are treated identically, however non-critical variations occur between experiments. All of the sheep used in this procedure are treated twice with levamisole hydrochloride orally at 8 mg/kg or once each with ivermectin parenterally at 200 µg/kg and levamisole hydrochloride orally at 8 mg/kg. The second treatment in each case is administered 4-7 days after the first treatment. Two weeks after the second treatment all sheep are inoculated per os with ∼3,500 to ∼7,500 infective larvae of H. contortus. Rectal fecal samples are taken from each sheep 26-41 days post-inoculation (P.I.), and these samples are examined for eggs of H. contortus using the McMaster counting chamber technique. […] One-three days later on days 27-42 PI each sheep remaining in the study (excluding the nontreated controls) is treated with a test compound (orally or parenterally at 100 mg/kg unless indicated otherwise) or a standard (levamisole hydrochloride orally at 8 mg/kg) or is used as an untreated control. All sheep received food and water ad lib. throughout the experiment. Prior to administration, all solid compounds are finely ground using a mortar and pestle. Oral compounds are suspended in 20-30 ml of sterile vehicle #98 (each ml contains: carboxymethylcellulose = 10 mg, polysorbate80 -4 mg, propylparaben - 0.42 mg) using a sonicator and administered along with a tap water wash via a stomach tube. The parenteral compounds are similarly suspended in 20-30 ml of the sterile vehicle and given by intraperitoneal injecting using a 13 gauge, 2 inch needle and a 50 ml syringe. All test compounds are given to a single sheep/route of administration. Two or more sheep are treated with levamisole hydrochloride and five are used as nontreated controls. All animals are monitored for signs of toxicity following treatment. The sheep are sacrificed 7-12 days after treatment (days 35-49 PI), and the abomasum is ligated and removed from each sheep. Each abomasum is longitudinally sectioned and rinsed into an 80 mesh sieve. Sieve contents are collected in individual containers and fixed in formol-alcohol. Later each sample is transferred to a 1000 or 2000 ml beaker and the volume brought to 400-1000 ml with tap water. The total number of worms in a 40-100 ml aliquot (10%) is determined. When no worms are found in the 10% aliquot, the entire sample is examined. Total worm number/sheep and percentage clearance for each treatment are calculated. Percentage clearance for a particular test compound in a given trial is determined according to the following formula: Percentage Clearance (Test Compound) = [(Mean number of worms recovered from nontreated control sheep - Number of worms recovered from treated sheep)/Mean number of worms recovered from nontreated control sheep] x 100. Sheep which die within 24 hr following treatment are not examined for worms, while any that die between 24 hr post-treatment and necropsy are examined in an identical manner as that described above. The results of various trials are combined and reported in Table I as percentage clearance.

The next assay concerns Haemonchus. The assay is described as follows: Sheep naturally infected with helminths, mean percentage clearance of adult worms (Procedure No. 2). Conditions: Oral, 100 mg/kg, groups of five. As to the method: (§1) Parasitized sheep are randomly assigned to groups of five animals based on parasitic burden, sex, and farm origin. Sheep are double ear-tagged, weighed, housed in a barn in community pens, fed hay supplemented with 1/2 lb corn/head/day. Water is given ad lib. Animals are allowed to acclimate for one-two weeks prior to treatment.
(§2) Each group of sheep receives a test compound either orally or parenterally at a dosage rate of 100 mg/kg. A group of sheep is treated with 8 mg/kg of levamisole hydrochloride and another group serves as an untreated control group. Orally administered compounds are suspended in 20-30 ml of sterile vehicle #98 (each ml contains: carboxymethylcellulose - 10 mg, polysorbate80 -4 mg, propylparaben - 0.42 mg) using a sonicator and administered along with a tap water wash via a stomach tube. For parenteral administration, compounds are similarly suspended in 20-30 ml of the sterile vehicle and given by intraperitoneal injection using a 20 gauge, 1 inch needle and a 50 ml syringe. Following treatment, all animals are observed for signs of toxicity.
(§3) The number and classification of helminth eggs per gram of feces (e.p.g.) are determined for each sheep during the acclimation period and in some cases at necropsy. Egg counts are made using the McMaster counting chamber technique and rectal fecal samples. Animals dying during the 24 hours immediately following dosing are not subjected to necropsy. Sheep that die 1-6 days posttreatment are posted and complete worm counts performed. All remaining animals are sacrificed on days 7-8 posttreatment. Each sheep is euthanised and bled out prior to opening the abdominal cavity. Ligatures are placed at the reticuloomasal junction, the pyloric valve, and the ileo-cecal junction. The abomasum and small intestine are freed of fat and mesenteric attachments, longitudinally opened, and their contents placed in individual containers. The mucosal surface of each is washed with tap water, rubbed clean, and rinsed several times. Washings and ingesta for each organ are made up to 1 liter and a 10% aliquot in formalin is stored for later examination. The cecum, large intestine, and colon are freed of mesenteric attachments, each is longitudinally opened, and their contents washed, collected, and made up to 1 liter in 10% formalin. The entire sample is stored. All carcasses are incinerated.
(§4) Ten percent of the total contents collected from the abomasum and small intestine and the entire contents of the large intestine, cecum, and colon are examined under stereoscopic magnification (40X). All worms are identified to genus and in some instances species. Separate adult and larval counts are determined.
(§5) The mean percentage clearance against specific helminths in the test sheep is calculated by subtracting the mean number of helminths observed in the treated sheep at necropsy from the mean number observed in the nontreated controls at necropsy, dividing the remainder by the latter mean number and multiplying by 100. The mean percentage clearances against the various helminths identified in the test sheep are calculated.

The next assay deals with Nematodirus. The assay is described as above. To be noted: Oral, 100 mg/kg, groups of five. As to the method:
as §1, §2, §3, §4, §5

Another assay relates to Oesophagostomum. Described as above. Conditions: Oral, 100 mg/kg, groups of five. As to the method: as §1, §2, §3, §4, §5
The test system of the next assay is Ostertagia. The assay is described as above. Conditions: Oral, 100 mg/kg, groups of five. As to the method:
as §1, §2, §3, §4, §5

Another assay has as its system Trichostrongylus axei. The description is as above. To be noted: Oral, 100 mg/kg, groups of five. As to the method: as §1, §2, §3, §4, §5
Assay [1] has as its system Trichostrongylus colubriformis. The assay is described as above. To be noted: Oral, 100 mg/kg, groups of five. As to the method:
as §1, §2, §3, §4, §5

The subject of the next assay is Trichuris. Described as above. To be noted: Oral, 100 mg/kg, groups of five. As to the method: as §1, §2, §3, §4, §5
The mark [2] stands for this setting: ip, intraperitoneal administration, read-out: H. contortus %Clearance I.P.
[3] abbreviates: oral administration, read-out: H. contortus %Clearance P.O.

`O=C(NN=Cc1ccnc2ccccc12)C1CCC1` [Compound 29, cyclobutanecarboxylic acid (4-quinolinylmethylene)hydrazide]: the inhibition in vivo at 100 mg/kg was 88.4% with H. contortus (setting [2]) and 99.8% with H. contortus (setting [3]).
Take `O=C(NN=Cc1ccnc2ccccc12)c1cccs1` [Compound 16]: the values for the inhibition in vivo at 100 mg/kg in the assay with H. contortus (setting [2]) and with H. contortus (setting [3]) were 80.1% and 25.2%, respectively.
As for `CCC(=O)NN=Cc1cnc2ccccc2c1` [Compound 39], the inhibition in vivo at 100 mg/kg in the assay with H. contortus (setting [3]) worked out at 96.4%.
As to `NC(=O)NCC(=O)NN=Cc1ccc2ccccc2n1` [Compound 12], the inhibition in vivo at 100 mg/kg in the assay with H. contortus (setting [3]) is 32.9%.
`O=C(NN=Cc1ccc2ccccc2n1)c1ccccc1` [Compound 8, benozic acid (2-quinolinylmethylene) hydrazide]: the inhibition in vivo at 100 mg/kg with H. contortus (setting [3]) was 33%.
Consider `O=C(NN=Cc1ccc2ccccc2n1)c1cccc([N+](=O)[O-])c1` [Compound 23, 3-nitrobenzoic acid (2-quinolinylmethylene)hydrazide], for which the inhibition in vivo at 100 mg/kg in the assay on H. contortus (setting [2]) amounted to 0%; in the assay on H. contortus (setting [3]), 39.5%.
Regarding `O=C(NN=Cc1ccnc2ccccc12)c1ccc(C(F)(F)F)cc1` [Compound 26, 4-trifluoromethylbenzoic acid (4-quinolinylmethylene)hydrazide], the results for the inhibition in vivo at 100 mg/kg in the assay with H. contortus (setting [2]) and with H. contortus (setting [3]) were 29% and 40.2%, respectively.
Turning to `Cc1cccc(C(=O)NN=Cc2ccc3ccccc3n2)c1` [Compound 4, 3-methylbenzoic acid (2-quinolinylmethyl-ene)hydrazide], the figures for the inhibition in vivo at 100 mg/kg in the assay with H. contortus (setting [2]) and with H. contortus (setting [3]) were 29.8% and 53.3%, respectively.
With `O=C(NN=Cc1ccc2ccccc2n1)c1cccc(O)c1` [Compound 20], the inhibition in vivo at 100 mg/kg in the assay on H. contortus (setting [2]) turned out to be 20.3%; with H. contortus (setting [3]), 0%.
Consider `Cc1ccccc1C(=O)NN=Cc1ccc2ccccc2n1` [Compound 15], for which the inhibition in vivo at 100 mg/kg in the assay on H. contortus (setting [2]) turned out to be 0%; in the assay on H. contortus (setting [3]), 32%.
In the case of `CC(=O)NN=Cc1cnc2ccccc2c1` [Compound 43], in the assay with H. contortus (setting [3]), the inhibition in vivo at 100 mg/kg is 85.4%.
On the same count and under the same terms, the value for `O=C(NN=Cc1ccnc2ccccc12)c1ccccc1` [Compound 11] was 96.8%.
Regarding `O=C(NN=Cc1cnc2ccccc2c1)C1CCCCC1` [Compound 41], the inhibition in vivo at 100 mg/kg in the assay on H. contortus (setting [3]) was 98.2%.
Take `O=C(NN=Cc1ccc2ccccc2n1)c1cccnc1` [Compound 9]: the inhibition in vivo at 100 mg/kg in the assay on H. contortus (setting [3]) was 76.8%.
Consider `COc1ccc(C(=O)NN=Cc2ccc3ccccc3n2)cc1` [Compound 22, 4-methoxybenzoic acid (2-quinolinylmethylene)hydrazide], for which the inhibition in vivo at 100 mg/kg worked out at 14.3% in the assay with H. contortus (setting [2]) and 0% in the assay on H. contortus (setting [3]).
For `CCOc1ccc(C(=O)NN=Cc2ccc3ccccc3n2)cc1` [Compound 14], in that order: 0% and 36.8%.
For the molecule `CCOC(=O)NN=Cc1ccnc2ccccc12` [Compound 6, ethyl (4-quinolinylmethylene)carbazate], the inhibition in vivo at 100 mg/kg with H. contortus (setting [2]) came out at 61.2%; with H. contortus (setting [3]), 82.9%. Further, the “Percentage Clearance of Adult Worms H.” value in the assay on Haemonchus stood at 94.1%. Also, the “Percentage Clearance of Adult Worms N.” value in the assay with Nematodirus was determined as 45.2%. Besides, the “Percentage Clearance of Adult Worms Oes.” value in the assay on Oesophagostomum is listed as 33.3%. The “Percentage Clearance of Adult Worms Ost.” value in the assay with Ostertagia is given as 79.4%. Also, the “Percentage Clearance of Adult Worms T.a.” value in the assay on Trichostrongylus axei came out at 0%. The “Percentage Clearance of Adult Worms T.c.” value in assay [1] is on record as 61.4%. Besides, in the assay with Trichuris, the “Percentage Clearance of Adult Worms Trich.” value was 11.1%.
For the molecule `COC(=O)NN=Cc1ccnc2ccccc12` [Compound 25, methyl (4-quinolinylmethylene)carbazate], the inhibition in vivo at 100 mg/kg with H. contortus (setting [3]) stood at 3.4%.
